TGI data for 14 compounds are collected here from PubChem BioAssay (NCI).

Each structure is given as a SMILES string.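 All cell lines were grown in 96-well plates and treated with compound for 48 hours. TGI: concentration producing complete growth inhibition.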 Some results are limits rather than exact numbers.

Some test systems named below: HCC-2998 colon; OVCAR-5 ovarian; SNB-19 CNS; LXFL 529 NSCLC; DMS 114 small cell lung; OVCAR-4 ovarian; SF-268 CNS; DLD-1 colon; SK-MEL-5 melanoma; K-562 leukemia; SNB-78 CNS.
What all share (assay): NCI tumour cell line growth inhibition, 48 h

On to `CC(=O)C(CN(CC(C)C)CC(C)C)C(c1ccccc1)c1c(O)c2ccccc2oc1=O` (stereo not drawn), for which the TGI in the assay with HCC-2998 colon, in the assay with OVCAR-5 ovarian, with SNB-19 CNS, with LXFL 529 NSCLC, with DMS 114 small cell lung and in the assay with OVCAR-4 ovarian was > 100 µM throughout. For the same compound, the TGI in the assay with SF-268 CNS and with DLD-1 colon was > 100 µM throughout.
With `CCN(CC)CC1c2ccccc2C(CNc2ccccc2)N1C` (stereo not drawn), the TGI with HCC-2998 colon, in the assay with OVCAR-5 ovarian, with SNB-19 CNS, with SK-MEL-5 melanoma, in the assay with LXFL 529 NSCLC and in the assay on DMS 114 small cell lung was > 100 µM each time. Also, the TGI in the assay on OVCAR-4 ovarian, in the assay with SF-268 CNS, in the assay with K-562 leukemia, with DLD-1 colon and in the assay with SNB-78 CNS was > 100 µM in each case.
`Fc1ccc(C2SCc3nc4ccccc4n32)c(F)c1` (stereo not drawn): the TGI with HCC-2998 colon was > 100 µM; in the assay with OVCAR-5 ovarian, > 100 µM; in the assay on SNB-19 CNS, > 100 µM; in the assay with SK-MEL-5 melanoma, 79.6 µM; in the assay with DMS 114 small cell lung, > 100 µM; in the assay on OVCAR-4 ovarian it was > 100 µM. Further, the TGI in the assay on SF-268 CNS, in the assay on K-562 leukemia, in the assay on DLD-1 colon and in the assay on SNB-78 CNS was > 100 µM each time.
With `COC(=O)C1CC2CC(=NNC(N)=O)CC2C1` (stereo not drawn), the TGI in the assay with HCC-2998 colon, in the assay with OVCAR-5 ovarian, in the assay on SNB-19 CNS, with SK-MEL-5 melanoma, in the assay on LXFL 529 NSCLC and in the assay with DMS 114 small cell lung was > 100 µM each time. Moreover, the TGI in the assay on OVCAR-4 ovarian, in the assay on SF-268 CNS, with K-562 leukemia, with DLD-1 colon and in the assay on SNB-78 CNS was > 100 µM in each case.
Take `CCCP1(=O)C=C(C)C(=C(Cl)Cl)C(C)=C1` (stereo not drawn): the TGI with HCC-2998 colon was 92.4 µM; in the assay with OVCAR-5 ovarian, > 100 µM; in the assay on SK-MEL-5 melanoma, 49.1 µM; in the assay on LXFL 529 NSCLC it was > 100 µM; in the assay on DMS 114 small cell lung it was > 100 µM; in the assay on OVCAR-4 ovarian, > 100 µM. Also, the TGI was 88.3 µM in the assay with SF-268 CNS, > 100 µM with K-562 leukemia, > 100 µM in the assay on DLD-1 colon and > 100 µM in the assay on SNB-78 CNS.
Regarding `Cc1c(/C=N/N=C/c2[nH]c(C(=O)OC(C)(C)C)c(C)c2C)[nH]c(C(=O)OC(C)(C)C)c1C`, the TGI in the assay on HCC-2998 colon, in the assay on OVCAR-5 ovarian, in the assay on SNB-19 CNS, with SK-MEL-5 melanoma, in the assay with LXFL 529 NSCLC and in the assay with DMS 114 small cell lung was > 100 µM each time. For the same compound, the TGI with OVCAR-4 ovarian, in the assay with SF-268 CNS, in the assay with K-562 leukemia, with DLD-1 colon and in the assay with SNB-78 CNS was > 100 µM throughout.
For `COc1ccc(-c2cc(Cc3cccs3)c(=O)[nH]n2)cc1`, the TGI in the assay with HCC-2998 colon is > 100 µM; in the assay with OVCAR-5 ovarian it was > 100 µM; in the assay on SNB-19 CNS it was > 100 µM; in the assay on SK-MEL-5 melanoma, 49.5 µM; with LXFL 529 NSCLC, > 100 µM; in the assay with DMS 114 small cell lung, > 100 µM. The TGI in the assay with SF-268 CNS and in the assay on SNB-78 CNS was > 100 µM throughout.
Consider `CC(=O)Nc1ccc(SC#N)c2c(NC(C)=O)cccc12`, for which the TGI in the assay with HCC-2998 colon was > 100 µM; in the assay on OVCAR-5 ovarian it was > 100 µM; with SNB-19 CNS, > 100 µM; with SK-MEL-5 melanoma, > 100 µM; in the assay on LXFL 529 NSCLC it was > 73 µM; in the assay with DMS 114 small cell lung, > 100 µM. The TGI in the assay with OVCAR-4 ovarian, in the assay on SF-268 CNS, with K-562 leukemia, with DLD-1 colon and in the assay on SNB-78 CNS was > 100 µM in each case.
For the compound `CCOC(=O)C1C(=S)NC(=O)C1C#N` (stereo not drawn), the TGI in the assay on HCC-2998 colon, in the assay with OVCAR-5 ovarian, in the assay with SNB-19 CNS, in the assay on SK-MEL-5 melanoma, in the assay with LXFL 529 NSCLC and in the assay with DMS 114 small cell lung was > 100 µM throughout. The TGI with OVCAR-4 ovarian, in the assay with SF-268 CNS, in the assay with K-562 leukemia and with DLD-1 colon was > 100 µM in each case.
As for `Cc1ccc2c(C3Cc4ccccc4N3C(=O)/C=C\C(=O)O)c(C)[nH]c2c1` (stereo not drawn), the TGI is > 100 µM in the assay with HCC-2998 colon; > 100 µM in the assay on OVCAR-5 ovarian; > 100 µM with SNB-19 CNS; > 100 µM in the assay on SK-MEL-5 melanoma; 42.9 µM in the assay with LXFL 529 NSCLC; > 100 µM in the assay with DMS 114 small cell lung. Further, the TGI in the assay with OVCAR-4 ovarian is > 100 µM; in the assay with K-562 leukemia, 73 µM; in the assay on DLD-1 colon, > 100 µM; in the assay with SNB-78 CNS, 45.3 µM.
For `CC#CCC1CCC(OCC)=CC1=O` (stereo not drawn), the TGI with OVCAR-5 ovarian, with SNB-19 CNS, with SK-MEL-5 melanoma, in the assay with LXFL 529 NSCLC, with DMS 114 small cell lung and in the assay on OVCAR-4 ovarian was > 100 µM throughout. For the same compound, the TGI in the assay with SF-268 CNS, in the assay with K-562 leukemia, with DLD-1 colon and in the assay with SNB-78 CNS was > 100 µM each time.
For the compound `COc1ccc(C=O)c([N+](=O)[O-])c1`, the TGI was > 100 µM with SNB-19 CNS; > 100 µM with SK-MEL-5 melanoma; 66.9 µM in the assay with DMS 114 small cell lung; > 100 µM in the assay with OVCAR-4 ovarian; > 100 µM in the assay on SF-268 CNS; 36 µM with K-562 leukemia. The TGI in the assay with SNB-78 CNS was > 100 µM.
Consider `CC(=O)NC(CCCNC(=O)N(CCCl)N=O)C(=O)NCc1ccccc1` (stereo not drawn), for which the TGI in the assay on HCC-2998 colon, with SNB-19 CNS, in the assay on LXFL 529 NSCLC, in the assay on DMS 114 small cell lung, in the assay on OVCAR-4 ovarian and in the assay on SF-268 CNS was > 100 µM in each case. The TGI with K-562 leukemia and with DLD-1 colon was > 100 µM throughout.
Turning to `CCC(=O)C12OC3OC(C)(C)OC3C1OC(C)(C)O2` (stereo not drawn), the TGI with HCC-2998 colon, in the assay with OVCAR-5 ovarian, in the assay with SNB-19 CNS, in the assay with OVCAR-4 ovarian, in the assay with SF-268 CNS and in the assay with K-562 leukemia was > 100 µM in each case. The TGI in the assay with DLD-1 colon and in the assay with SNB-78 CNS was > 100 µM throughout.
